Source: the NIST ThermoML archive (doi:10.1021/je034053i)

What was measured:
[1] = 298.15 K; for surface tension liquid-gas: Drop volume; for mass density: 101.33 kPa, Liquid
[2] = refractive index (Na D-line) (dimensionless); settings: 298.15 K; 101.33 kPa; Liquid; Standard Abbe refractometry
[3] = xn = mol fraction of the nth substance listed; settings: 298.15 K; for surface tension liquid-gas: Drop volume; for mass density: 101.3 kPa, Liquid
[4] = refractive index (Na D-line) (dimensionless); xn = mol fraction of the nth substance listed; settings: 298.15 K, 101.3 kPa, Liquid, Standard Abbe refractometry

CCCCCCCC [octane]
Settings	mass density [kg/m3]	refractive index	surface tension liquid-gas [mN/m]
[1]	698.5	–	21.17
[2]	–	1.3951	–

CCCCCCCO [heptan-1-ol]
Settings	mass density [kg/m3]	refractive index	surface tension liquid-gas [mN/m]
[1]	818.75	–	26.47
[2]	–	1.4224	–

CCCCCCCC [octane] + CCO
Settings	mass density [kg/m3]	refractive index	surface tension liquid-gas [mN/m]
[3], x1 = 0.0131	781.56	–	–
[3], x1 = 0.0523	771.81	–	–
[3], x1 = 0.0686	–	–	21.37
[3], x1 = 0.0788	766.05	–	–
[3], x1 = 0.1132	–	–	21.2
[3], x1 = 0.1433	758.82	–	–
[3], x1 = 0.1721	–	–	21.06
[3], x1 = 0.1881	754.27	–	–
[3], x1 = 0.2228	747.52	–	–
[3], x1 = 0.2616	742.94	–	–
[3], x1 = 0.2867	–	–	20.88
[3], x1 = 0.3011	738.29	–	–
[3], x1 = 0.3571	–	–	20.82
[3], x1 = 0.3725	734.06	–	–
[3], x1 = 0.3985	727.44	–	–
[3], x1 = 0.4536	725.27	–	–
[3], x1 = 0.4544	–	–	20.77
[3], x1 = 0.4898	–	–	20.77
[3], x1 = 0.5175	721.13	–	–
[3], x1 = 0.5401	–	–	20.78
[3], x1 = 0.5832	716.94	–	–
[3], x1 = 0.5865	–	–	20.79
[3], x1 = 0.6299	–	–	20.8
[3], x1 = 0.6457	–	–	20.81
[3], x1 = 0.669	–	–	20.84
[3], x1 = 0.6709	713.14	–	–
[3], x1 = 0.7226	708.8	–	–
[3], x1 = 0.765	–	–	20.89
[3], x1 = 0.8041	–	–	20.92
[3], x1 = 0.8191	–	–	20.94
[3], x1 = 0.8201	706.53	–	–
[3], x1 = 0.8707	702.91	–	–
[3], x1 = 0.9095	–	–	21.01
[3], x1 = 0.9212	–	–	21.05
[4], x1 = 0.0686	–	1.3641	–
[4], x1 = 0.1132	–	1.367	–
[4], x1 = 0.1721	–	1.3705	–
[4], x1 = 0.1834	–	1.3711	–
[4], x1 = 0.2867	–	1.3762	–
[4], x1 = 0.35	–	1.3789	–
[4], x1 = 0.3571	–	1.3792	–
[4], x1 = 0.4544	–	1.3827	–
[4], x1 = 0.4898	–	1.3839	–
[4], x1 = 0.5401	–	1.3853	–
[4], x1 = 0.5865	–	1.3866	–
[4], x1 = 0.6299	–	1.3877	–
[4], x1 = 0.6457	–	1.388	–
[4], x1 = 0.669	–	1.3885	–
[4], x1 = 0.765	–	1.3906	–
[4], x1 = 0.8191	–	1.3917	–
[4], x1 = 0.9095	–	1.3934	–
[4], x1 = 0.9212	–	1.3939	–

CCCCCCCC [octane] + CCCO
Settings	refractive index, [4]	surface tension liquid-gas, [3] [mN/m]
x1 = 0.0237	1.3835	–
x1 = 0.123	1.3852	22.38
x1 = 0.1859	1.3862	22.05
x1 = 0.2349	1.3869	21.81
x1 = 0.29	1.3877	21.66
x1 = 0.3454	1.3884	21.53
x1 = 0.3547	1.3885	21.51
x1 = 0.4493	1.3896	21.36
x1 = 0.5154	1.3903	21.3
x1 = 0.5218	1.3904	21.29
x1 = 0.6224	1.3914	21.22
x1 = 0.6308	1.3915	21.21
x1 = 0.6938	1.3921	21.21
x1 = 0.7592	1.3927	21.17
x1 = 0.7884	1.393	21.17
x1 = 0.8449	1.3935	21.16
x1 = 0.8918	1.394	21.16
x1 = 0.9245	1.3943	21.16

CCCCCO [pentan-1-ol] + CCCCCCCC
Settings	refractive index, [4]	surface tension liquid-gas, [3] [mN/m]
x2 = 0.0189	1.4075	–
x2 = 0.115	1.4058	23.88
x2 = 0.1459	1.4052	23.6
x2 = 0.1629	1.4049	23.5
x2 = 0.2727	1.403	22.8
x2 = 0.3271	1.4022	22.54
x2 = 0.4586	1.4003	22.06
x2 = 0.4927	1.3999	21.96
x2 = 0.5188	1.3996	21.91
x2 = 0.5951	1.3986	21.75
x2 = 0.655	1.3979	21.65
x2 = 0.6713	1.3977	21.63
x2 = 0.7676	1.3968	21.5
x2 = 0.7932	1.3966	21.46
x2 = 0.834	1.3963	21.41
x2 = 0.8869	1.3958	21.35
x2 = 0.9457	1.3955	21.27

CCCCO [butan-1-ol]
Settings	mass density [kg/m3]	refractive index	surface tension liquid-gas [mN/m]
[1]	805.76	–	24.02
[2]	–	1.3973	–

CCCCCCO [hexan-1-ol]
Settings	mass density [kg/m3]	refractive index	surface tension liquid-gas [mN/m]
[1]	815.15	–	25.73
[2]	–	1.4159	–

CCCCCO [pentan-1-ol]
Settings	mass density [kg/m3]	refractive index	surface tension liquid-gas [mN/m]
[1]	810.83	–	24.97
[2]	–	1.408	–
